Paper PMC12384620, “Hit-to-Lead Studies of Pyrazinylpiperazines against Visceral Leishmaniasis: Pharmacokinetic Profile and In Vivo Efficacy of Potent Compounds against Leishmania infantum” (ACS Pharmacology & Translational Science, 2025)

What was measured:
[1] = test system: L. infantum promastigotes; test: Antileishmanial activity against promastigotes (MTS); assay type: cell-based; conditions: Leishmania infantum, 72 h
Description: L. infantum promastigotes (MHOM/MA/67/ITMAP-263) were cultured in complete Schneider medium (SigmaAldrich, St. Louis, MO, USA), which consisted of Schneider medium plus 10% heat-inactivated fetal bovine serum (FBS, SigmaAldrich) pH 7.4, at 24 °C. The L. infantum promastigotes were plated at a concentration of 10^5 parasites/mL, and 2 was added at concentrations of 64, 32, 16, 8, 4, 2, 1, 0.5, 0.25, and 0.125 μM. The cells were cultured for 72 h and, after the incubation time, cell proliferation was measured by colorimetric MTS assay. The cells in each well were stained with 20 μL of MTS (Promega, G3580) for 3 h, and the OD at 490 nm was determined with a microplate reader. All experiments were independently repeated at least three times.

L. braziliensis DHODH = test: DHODH inhibition assay (DCIP); assay type: biochemical, Leishmania braziliensis; conditions: 100 μM
Description: The inhibition assay was conducted under the following conditions: 50 mM Tris (pH 8.15), 150 mM KCl, 50 μM DHO, 60 μM DCIP, and 0.1% Triton X-100. 2 was assayed in triplicate at a concentration of 100 μM, using 5% (v/v) DMSO to prepare stock solutions. The reaction was initiated by adding the enzyme, reaching a final enzyme concentration of 165 nM. Enzymatic activity was then measured for 60 s at 610 nm using a microplate reader (SpectraMax Plus 384, Molecular Devices, San Jose, CA, USA) at 25 °C. The uninhibited reaction, containing 5% (v/v) DMSO, was used as a positive control (100% activity).

[2] = test system: L. infantum promastigotes; test: Reactive oxygen species production assay (H2DCFDA); assay type: cell-based, Leishmania infantum; conditions: at IC50 against promastigotes, 24 h; standard 100 μM H2O2
Description: The fluorescent dye H2DCFDA was employed to evaluate ROS production. […] After treatment, the parasites were harvested, washed three times with 1 × PBS, and incubated with 10 μM H2DCFDA dye in […] of 1 × PBS in the dark at room temperature for 30 min. Subsequently, the cells were centrifugated, resuspended in ice-cold PBS and kept at 0 °C until reading on a SpectraMax Gemini XPS/EM microplate reader. The median fluorescence intensity (MIF) was measured on a population of at least ten thousand cells and the data was further analyzed using Excel 2021.

## O=C(c1ccc(O)cc1)N1CCN(c2cnccn2)CC1 [Compound 2, (4-Hydroxyphenyl)(4-(pyrazin-2-yl)piperazin-1-yl)methanone]
[1]
  IC50: 7.93 µM
L. braziliensis DHODH
  inhibition of DHODH: less than 25%
[2]
  ROS production: comparable to that of the standard H2O2
